Source: patent US9296723B2, “NAMPT inhibitors” (AbbVie Inc., priority 2012, dated 2016)

Columns and labels:
NAMPT [1] = target: T1, NAMPT (Homo sapiens, UniProt P43490); assay: Time-Resolved Fluorescence Resonance Energy Transfer (TR-FRET) Binding Assay of NAMPT; details: 6.8 nM NAMPT, 200 nM probe, equilibrated 3 hours, no substrates
In short: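 Compound was mixed with enzyme, probe and antibody and equilibrated 3 h at room temperature. TR-FRET read at Ex 337 nm, Em 520/495 nm. Ratios were normalized to controls and fitted to a four-parameter logistic equation for IC50.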

NAMPT [2] = target: T1, NAMPT; assay: TR-FRET Binding Assay of NAMPT with PRPP; details: 2 nM NAMPT, 2 nM probe, 200 µM PRPP and 2.5 mM ATP, equilibrated 16 hours
In short: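 TR-FRET probe displacement with 2 nM NAMPT, 2 nM probe and 1 nM Tb-anti-His antibody in the presence of 200 µM PRPP and 2.5 mM ATP, 2% DMSO (all final). Equilibrated 16 hours before reading to permit possible enzymatic modification of compounds.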

PC3 cells = assay: NAMPT Cell Proliferation Assay (Cell Titer Glo); type: cell-based; details: Homo sapiens, PC-3, 120 h, incubated 5 days, cell viability
In short: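 PC3 cells (500/well, RPMI with 10% heat-inactivated FBS) were exposed to 10-fold compound dilutions from […] for 5 days at 37 °C, 5% CO2. Viability was read with Cell Titer Glo; IC50 from sigmoidal fit of percent inhibition.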

T1 sequence (P43490 whole entry): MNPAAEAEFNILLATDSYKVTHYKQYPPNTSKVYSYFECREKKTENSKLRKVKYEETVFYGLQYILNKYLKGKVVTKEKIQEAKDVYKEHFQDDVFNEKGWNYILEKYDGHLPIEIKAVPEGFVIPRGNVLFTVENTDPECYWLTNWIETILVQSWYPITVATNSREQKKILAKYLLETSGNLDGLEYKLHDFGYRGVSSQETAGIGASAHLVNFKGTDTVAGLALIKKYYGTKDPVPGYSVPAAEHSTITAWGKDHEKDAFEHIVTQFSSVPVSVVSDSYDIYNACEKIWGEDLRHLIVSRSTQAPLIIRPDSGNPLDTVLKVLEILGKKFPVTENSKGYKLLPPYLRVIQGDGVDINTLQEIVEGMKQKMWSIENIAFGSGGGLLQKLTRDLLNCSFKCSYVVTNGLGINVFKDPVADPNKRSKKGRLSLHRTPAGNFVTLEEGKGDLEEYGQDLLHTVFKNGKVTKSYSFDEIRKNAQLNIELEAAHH

Row | SMILES | IC50 (NAMPT [1]) [nM] | IC50 (NAMPT [2]) [nM] | IC50 (PC3 cells) [nM]
1 | O=C(Nc1ccc(C2CN(C(=O)C3CCCC3)C2)cc1)N1CC(c2cccnc2)C1 [Example 214, N-{4-[1-(cyclopentylcarbonyl)azetidin-3-yl]phenyl}-3-(pyridin-3-yl)azetidine-1-carboxamide] | 75.8 | 0.289 | 43.7
2 | CC(C)(C)OC(=O)N1CCC(c2ccc(NC(=O)N3CC(c4cccnc4Cl)C3)cc2)CC1 [Example 112, tert-butyl 4-[4-({[3-(2-chloropyridin-3-yl)azetidin-1-yl]carbonyl}amino)phenyl]piperidine-1-carboxylate] | 43.5 | 45.9 | 906
3 | CC(C)CC(=O)N1CCC(c2ccc(NC(=O)N3CC(c4cccnc4)C3)cc2)C1 (stereo not drawn) [Example 294, N-{4-[1-(3-methylbutanoyl)pyrrolidin-3-yl]phenyl}-3-(pyridin-3-yl)azetidine-1-carboxamide] | 44.3 | 0.2 | 60.9
4 | O=C(CCN1CCOCC1)N1CC[C@@H](Oc2ccc(NC(=O)N3CC(c4cccnc4)C3)cc2)C1 [Example 321, N-[4-({(3R)-1-[3-(morpholin-4-yl)propanoyl]pyrrolidin-3-yl}oxy)phenyl]-3-(pyridin-3-yl)azetidine-1-carboxamide] | 176 | 0.246 | 119
5 | CCOCCC(=O)N1CCC(c2ccc(NC(=O)N3CC(c4cccnc4)C3)cc2)C1 (stereo not drawn) [Example 274, N-{4-[1-(3-ethoxypropanoyl)pyrrolidin-3-yl]phenyl}-3-(pyridin-3-yl)azetidine-1-carboxamide] | 82.2 | 0.264 | 68.5
6 | CC(C)(C)OC(=O)N1CCC(c2ccc(NC(=O)N3CC(c4cccnc4)C3)cc2)C1 (stereo not drawn) [Example 59, tert-butyl 3-[4-({[3-(pyridin-3-yl)azetidin-1-yl]carbonyl}amino)phenyl]pyrrolidine-1-carboxylate] | 38.5 | 0.364 | 68.5
7 | CCOCC(=O)N1CC(Oc2ccc(NC(=O)N3CC(c4cccnc4)C3)cc2)C1 [Example 119, N-(4-{[1-(ethoxyacetyl)azetidin-3-yl]oxy}phenyl)-3-(pyridin-3-yl)azetidine-1-carboxamide] | 117 | 0.978 | 76.9
8 | O=C(CN1CCOCC1)N1CCC(c2ccc(NC(=O)N3CC(c4cccnc4)C3)cc2)CC1 [Example 187, N-{4-[1-(morpholin-4-ylacetyl)piperidin-4-yl]phenyl}-3-(pyridin-3-yl)azetidine-1-carboxamide] | 39.3 | 0.292 | 86.3
9 | CCCCC(=O)N1CC[C@@H](Oc2ccc(NC(=O)N3CC(c4cccnc4)C3)cc2)C1 [Example 297, N-(4-{[(3R)-1-pentanoylpyrrolidin-3-yl]oxy}phenyl)-3-(pyridin-3-yl)azetidine-1-carboxamide] | 56.6 | 0.236 | 18.2
10 | CCCN1CCC(c2ccc(NC(=O)N3CC(c4cccnc4)C3)cc2)CC1 [Example 241, N-[4-(1-propylpiperidin-4-yl)phenyl]-3-(pyridin-3-yl)azetidine-1-carboxamide] | 359 | 0.255 | 252
11 | O=C(Nc1ccc(C2CN(C(=O)C3CC3)C2)cc1)N1CC(c2cccnc2)C1 [Example 109, N-{4-[1-(cyclopropylcarbonyl)azetidin-3-yl]phenyl}-3-(pyridin-3-yl)azetidine-1-carboxamide] | 306 | 0.596 | 110
12 | Cc1noc(C)c1C(=O)N1CC(Oc2ccc(NC(=O)N3CC(c4cccnc4)C3)cc2)C1 [Example 145, N-[4-({1-[(3,5-dimethyl-1,2-oxazol-4-yl)carbonyl]azetidin-3-yl}oxy)phenyl]-3-(pyridin-3-yl)azetidine-1-carboxamide] | 90.5 | 0.6 | 73.9
13 | CCOCC(=O)N1CCC(c2ccc(NC(=O)N3CC(c4cccnc4)C3)cc2)CC1 [Example 173, N-{4-[1-(ethoxyacetyl)piperidin-4-yl]phenyl}-3-(pyridin-3-yl)azetidine-1-carboxamide] | 90.4 | 0.393 | 56.4
14 | CN(C)CCC(=O)N1CC(Oc2ccc(NC(=O)N3CC(c4cccnc4)C3)cc2)C1 [Example 150, N-(4-{[1-(N,N-dimethyl-beta-alanyl)azetidin-3-yl]oxy}phenyl)-3-(pyridin-3-yl)azetidine-1-carboxamide] | 435 | 2.85 | 1050
15 | O=C(NCC1CCOC1)c1ccc(NC(=O)N2CC(c3cccnc3)C2)cc1 (stereo not drawn) [Example 49, 3-(pyridin-3-yl)-N-{4-[(tetrahydrofuran-3-ylmethyl)carbamoyl]phenyl}azetidine-1-carboxamide] | 150 | 0.245 | 80.1

Continued, values first:

Row | IC50 (NAMPT [1]) [nM] | IC50 (NAMPT [2]) [nM] | IC50 (PC3 cells) [nM] | SMILES
16 | 30.4 | 0.519 | 8.36 | CC(C)(C)C(=O)N1CC(Oc2ccc(NC(=O)N3CC(c4cccnc4)C3)cc2)C1 [Example 128, N-(4-{[1-(2,2-dimethylpropanoyl)azetidin-3-yl]oxy}phenyl)-3-(pyridin-3-yl)azetidine-1-carboxamide]
17 | 7.07 | 0.364 | 14.8 | CC(C)(C)CC(=O)N1CCC(c2ccc(NC(=O)N3CC(c4cccnc4)C3)cc2)CC1 [Example 170, N-{4-[1-(3,3-dimethylbutanoyl)piperidin-4-yl]phenyl}-3-(pyridin-3-yl)azetidine-1-carboxamide]
18 | 35.3 | 0.421 | 11.8 | CC[C@H](C)C(=O)N1CC(c2ccc(NC(=O)N3CC(c4cccnc4)C3)cc2)C1 [Example 110, N-(4-{1-[(2S)-2-methylbutanoyl]azetidin-3-yl}phenyl)-3-(pyridin-3-yl)azetidine-1-carboxamide]
19 | 21.3 | 0.284 | 67.7 | O=C(Nc1ccc(C2CCN(C(=O)C3CCCC3)CC2)cc1)N1CC(c2cccnc2)C1 [Example 180, N-{4-[1-(cyclopentylcarbonyl)piperidin-4-yl]phenyl}-3-(pyridin-3-yl)azetidine-1-carboxamide]
20 | 38.3 | 0.363 | 34.5 | CC(C)CCC(=O)N1CCC(c2ccc(NC(=O)N3CC(c4cccnc4)C3)cc2)C1 (stereo not drawn) [Example 275, N-{4-[1-(4-methylpentanoyl)pyrrolidin-3-yl]phenyl}-3-(pyridin-3-yl)azetidine-1-carboxamide]
21 | 20.9 | 0.31 | 30.7 | CC(C)(C)OC(=O)N1CC[C@H](Oc2ccc(NC(=O)N3CC(c4cccnc4)C3)cc2)C1 [Example 61, tert-butyl (3S)-3-[4-({[3-(pyridin-3-yl)azetidin-1-yl]carbonyl}amino)phenoxy]pyrrolidine-1-carboxylate]
22 | 25.8 | 0.207 | 150 | CC(=O)C(=O)N1CCC(c2ccc(NC(=O)N3CC(c4cccnc4)C3)cc2)C1 (stereo not drawn) [Example 291, N-{4-[1-(2-oxopropanoyl)pyrrolidin-3-yl]phenyl}-3-(pyridin-3-yl)azetidine-1-carboxamide]
23 | 18.6 | 0.497 | 7.73 | CCC(C)CC(=O)N1CC(Oc2ccc(NC(=O)N3CC(c4cccnc4)C3)cc2)C1 (stereo not drawn) [Example 121, N-(4-{[1-(3-methylpentanoyl)azetidin-3-yl]oxy}phenyl)-3-(pyridin-3-yl)azetidine-1-carboxamide]
